This is an account of results in patent publication US8492341B2, “Amyloid-β binding peptides” (Alzyme Pty Ltd., priority 2006, dated 2013).

The test system of one series is M17 Neuroblastoma cells. Nature of the series: MTS cell viability assay, cell death induced by human Aβ1-42 (40 μM). Format: cell-based. As to the method: M17 Neuroblastoma cells were seeded in a 48 well plate at a density of 50,000 cells per well. The plate was incubated for 24 hours at 37° C. in media (OPTI-MEM) containing 10% FCS. The next day the cells were treated with human Aβ1-42 (40 μM) in the presence or absence of the peptides 15merTNP or peptide analogue MP2 (FIG. 2). The peptides were provided at concentrations ranging from 20-400 μM prepared in Neuro basal media containing B27 supplement without antioxidants. Following incubation (4 days at 37° C.), cell viability was assessed using the CellTiter 96® AQueous One Solution cell proliferation assay (MTS; Promega, Wis., USA) as per manufactures instructions. Briefly, 200 μl of MTS reagent (1/10 dilution) was added directly to the culture wells and the plate incubated for 3 hours at 37° C. Following incubation, 150 μl of the solution was transferred to a 96 well plate and the absorbance is determined spectrophotometrically at 490 nm.
Similar to the MTT assay, the MTS assay is a colorimetric method for determining the number of viable cells in proliferation or cytotoxicity assays. The principle of the MTS assay is the same as the MTT assay, except for the tetrazolium compound that is bio-reduced by the mitochondria of the cells, forming a coloured formazan product that is soluble (rather than insoluble for the MTT assay) in tissue culture medium. This conversion is accomplished by NADPH or NADH produced by dehydrogenase enzymes in metabolically active cells: Berridge M V. And Tan A. S. (1993) Characterisation of the cellular reduction of 3-(4,5-dimethylthiazol-2-yl)-2,5-diphenyltetrazolium bromide (MTT): Subcellular localisation, substrate dependence and involvement of mitochondrial electron transport in MTT reduction. Arch. Biochem. Biophys. 303, 474-82.
The effect of human Aβ1-42 (40 μM) on cell viability was determined in triplicate in each of the 10 MTS assays (i.e. n=30) performed in this study. All data are presented as means±SEM.
The effect of peptide analogue MP2 to protect against human Aβ42-induced toxicity was then determined using the MTS assay in triplicate in two separate experiments for all doses (i.e. n=6), unless otherwise specified. The effectiveness of MP2 was compared against the 15merTNP.
(Formazan colour is commonly taken as a measure of viable cells.)

Details of series [1]: species or system mice (129×1 strain). As to conditions: mouse, in vivo. As for the experimental part: Another essential requirement of drug development is the ability of the peptide to cross the BBB and impact on targeted tissue. To measure the ability of 15merTNP and peptide analogue MP2 to cross the BBB, intracerebroventricular (i.c.v) delivery was assessed. The use of i.c.v injections on animal models allows for high doses to be delivered straight to the ventricular spaces where it can cross the parenchyma layer to the brain matter.
For i.c.v injections, control mice (129×1 strain) were anesthetized with intraperitoneal ketamine/xylazine at a dose of 10 ml/kg and then administered with 200 μg of either peptide (90 nmol). Both radioactive (^3H-labelled; hot) and non-radioactive (cold) was used to allow physiological doses of peptide to be delivered.
To determine whether the peptides had effectively penetrated into the brain parenchyma, a capillary depletion experiment was performed. After 25 min post injection the animal was sacrificed and the brain removed. This was homogenized and centrifuged for 10 min at 13000 rpm at 4° C. resulting in a supernatant containing predominately radioactivity from the cortex and a pellet with radioactivity from the capillaries and endothelium. A comparison of radioactivity in each sample was conducted to assess percentage of peptide movement into the cortex. The amount of radioactivity in the capillary pellet of mice that were perfused and not perfused with saline solution was compared to determine the percentage of peptide bound to the luminal surface of the capillaries and sequestered by brain endothelial cells.
A detailed necropsy was performed on each animal following perfusion to thoroughly assess peptide movement throughout peripheral organs, central nervous tissue and blood. […] Thus the concentration of labelled tritium could be measured per mass of sample and using this and the known ratio of non-labelled peptide present, the concentration of total peptide could be determined.
The pharmacokinetic profile of peptide analogue MP2 over four time points, post i.c.v injection into the CNS was determined. […]

For another series, the target named is Aβ (Homo sapiens, UniProt P05067). Nature of the series: Copper-induced Aβ oligomer generation (SDS-PAGE, WO2 immunoblot). As to conditions: Aβ 5 uM, Cu+2 25 μM, 0-1000 μM peptide, 37 C, 24 hours; vs reverse peptide control. Format: biochemical. As to the method:
Incubation of Aβ with copper generates cross-linked oligomeric species (Atwood et al., 2000: Cell Mol Biol, 46: 777-783; Atwood et al., 2004: Biochemistry, 43: 560-568). In this experiment, Aβ (5 uM) is incubated with Cu+2 (25 μM) and 0-1000 μM of the modified peptides at 37 C for 24 hours. After the incubation period, 20 ng is loaded onto an SDS-PAGE gel and immunoblotted with WO2 antibody. Compared to the reverse peptide control, all the modified peptides inhibited the generation of Aβ oligomers at various concentration.

Sequence of Aβ (P05067 672-713 limits assumed): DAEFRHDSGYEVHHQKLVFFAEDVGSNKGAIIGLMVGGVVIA

In the case of “Ac-NRTPQMLKR-NH2 [MP2, Ac-Asn-Arg-Thr-Pro-Gln-Met-Leu-Lys-Arg-NH2]”, in the series on M17 Neuroblastoma cells (Aβ1-42 40 μM), the “maximum reduction in cell toxicity associated with human Aβ1-42” value is “around 15%”. The “effect on cell death associated with human Aβ1-42” value in the series on M17 Neuroblastoma cells (peptide concentration ≧200 μM, P<0.05) is “significantly reduced cell death”; in the series on M17 Neuroblastoma cells (peptide concentrations ≦80 μM), “no effect”. Besides, in series [1], the “crossing of the blood brain barrier” value was “poorly”. Also, in series [1], the “peptide removed from the CNS” value is recorded as 99%. For the same substance, the “inhibition of Aβ oligomer formation” value on Aβ is on record as “most potent”.
